# Laboratory results published in patent US10221173B2, “Chemical compounds” (AstraZeneca AB, priority 2017, dated 2019).
# Tests used:
# [1] = Thermodynamic solubility (shake-flask); assay type: physicochemical; conditions: aqueous phosphate buffer, 25 °C, pH 7.4, aqueous buffer, thermodynamic from solid, phosphate buffer pH 7.4, 24 hours
# [2] = biological target: estrogen receptor (ERα) in CAMA-1 cells (Homo sapiens (Human), UniProt P03372); assay: Western blotting assay, ER down-regulation in CAMA-1; assay type: cell-based; conditions: CAMA-1, 100 nM compound, 48 h, vs 100 nM fulvestrant
# estrogen receptor (ERα) in CAMA-1 cells, sequence (P03372 whole entry): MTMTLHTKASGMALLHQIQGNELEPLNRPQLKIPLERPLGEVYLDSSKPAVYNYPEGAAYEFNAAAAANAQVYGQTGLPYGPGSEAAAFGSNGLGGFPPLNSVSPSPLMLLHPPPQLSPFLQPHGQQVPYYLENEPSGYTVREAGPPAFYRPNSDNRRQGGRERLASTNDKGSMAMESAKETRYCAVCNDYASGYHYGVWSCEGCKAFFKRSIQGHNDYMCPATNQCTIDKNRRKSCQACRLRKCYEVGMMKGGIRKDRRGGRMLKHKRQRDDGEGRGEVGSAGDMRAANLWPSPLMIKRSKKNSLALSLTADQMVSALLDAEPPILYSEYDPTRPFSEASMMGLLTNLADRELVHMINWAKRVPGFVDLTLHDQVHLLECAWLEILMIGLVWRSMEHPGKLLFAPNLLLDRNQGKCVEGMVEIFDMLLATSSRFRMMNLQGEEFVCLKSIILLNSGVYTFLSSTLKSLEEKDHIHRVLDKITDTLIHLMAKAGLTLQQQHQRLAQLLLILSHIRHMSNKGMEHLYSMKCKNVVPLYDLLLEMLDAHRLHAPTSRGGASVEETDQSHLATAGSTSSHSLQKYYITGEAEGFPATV
# [3] = biological target: T1, Estrogen Receptor (ERα) in MCF-7 cells (Homo sapiens (Human), UniProt P03372); assay: Western blotting assay, ER down-regulation in MCF-7; assay type: cell-based; conditions: MCF-7, 100 nM compound, 48 h, vs 100 nM fulvestrant
# T1 sequence (P03372 whole entry, the tested form may be a part): as the sequence (P03372 whole entry) above
# [4] = biological target: recombinant human Estrogen Receptor alpha ligand binding domain (ER alpha-LBD (GST)) (Homo sapiens (Human), UniProt P03372); assay: ERα binding assay (LanthaScreen TR-FRET competition)
# recombinant human Estrogen Receptor alpha ligand binding domain (ER alpha-LBD (GST)), sequence (P03372 307-554): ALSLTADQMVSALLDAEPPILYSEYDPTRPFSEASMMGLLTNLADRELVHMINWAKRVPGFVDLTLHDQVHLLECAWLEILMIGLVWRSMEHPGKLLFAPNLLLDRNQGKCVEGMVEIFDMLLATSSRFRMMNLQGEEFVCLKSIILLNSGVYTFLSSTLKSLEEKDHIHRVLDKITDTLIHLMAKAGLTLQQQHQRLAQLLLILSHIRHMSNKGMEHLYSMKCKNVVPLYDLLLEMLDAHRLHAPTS
# [5] = biological target: T1, Estrogen Receptor (ERα) in MCF-7 cells; assay: MCF-7 ER down-regulation assay (immuno-fluorescence); assay type: cell-based
# [6] = biological target: hERG potassium channel (Homo sapiens (Human), UniProt Q12809)
# hERG potassium channel, sequence (Q12809 whole entry): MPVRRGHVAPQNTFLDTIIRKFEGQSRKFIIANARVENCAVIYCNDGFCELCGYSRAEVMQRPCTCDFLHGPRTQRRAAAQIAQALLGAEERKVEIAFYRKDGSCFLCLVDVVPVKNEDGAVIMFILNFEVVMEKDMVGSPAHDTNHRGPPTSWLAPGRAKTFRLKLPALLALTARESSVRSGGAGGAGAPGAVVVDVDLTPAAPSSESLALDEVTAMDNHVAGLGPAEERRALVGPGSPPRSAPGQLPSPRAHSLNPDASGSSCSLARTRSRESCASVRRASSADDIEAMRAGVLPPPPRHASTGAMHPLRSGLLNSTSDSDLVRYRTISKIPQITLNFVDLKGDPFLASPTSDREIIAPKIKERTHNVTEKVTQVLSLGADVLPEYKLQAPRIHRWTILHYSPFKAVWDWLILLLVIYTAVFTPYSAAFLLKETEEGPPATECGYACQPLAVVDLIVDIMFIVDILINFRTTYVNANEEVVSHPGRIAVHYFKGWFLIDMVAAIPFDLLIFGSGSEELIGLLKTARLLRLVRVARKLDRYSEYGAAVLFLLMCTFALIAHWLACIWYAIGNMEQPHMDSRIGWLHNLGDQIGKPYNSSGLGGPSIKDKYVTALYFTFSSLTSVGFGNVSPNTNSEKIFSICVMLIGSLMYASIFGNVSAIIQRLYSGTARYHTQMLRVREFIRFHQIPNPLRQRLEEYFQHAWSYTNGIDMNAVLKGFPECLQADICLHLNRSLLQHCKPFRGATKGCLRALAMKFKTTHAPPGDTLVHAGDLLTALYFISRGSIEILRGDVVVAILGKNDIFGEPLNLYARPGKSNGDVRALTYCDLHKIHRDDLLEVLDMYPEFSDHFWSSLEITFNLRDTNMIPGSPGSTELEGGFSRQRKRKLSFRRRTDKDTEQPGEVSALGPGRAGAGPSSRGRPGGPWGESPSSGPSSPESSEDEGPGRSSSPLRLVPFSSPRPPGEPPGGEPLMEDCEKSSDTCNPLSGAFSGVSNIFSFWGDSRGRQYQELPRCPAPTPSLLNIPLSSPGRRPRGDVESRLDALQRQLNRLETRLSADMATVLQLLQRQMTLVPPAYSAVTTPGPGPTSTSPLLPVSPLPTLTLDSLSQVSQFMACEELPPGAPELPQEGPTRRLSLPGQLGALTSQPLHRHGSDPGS
# [7] = Log D (shake flask, 1-octanol/aqueous buffer); assay type: physicochemical; conditions: 1-octanol/aqueous buffer, pH 7.4, pH 7.4
# [8] = Human plasma protein binding (equilibrium dialysis); assay type: in vitro ADME
SMILES,solubility at 24 h [1],CAMA1 Western % ER deg vs Fv [2],MCF7 Western % ER deg vs Fv [3],IC50 [4],IC50 [5],IC50 [6],logD [7],Human plasma protein binding (% free) [8]
"COc1ccc(OCCNCCCF)cc1[C@@H]1c2[nH]c3ccccc3c2C[C@@H](C)N1CC1(F)COC1 [Example 4, 3-Fluoro-N-(2-(3-((1R,3R)-2-((3-fluorooxetan-3-yl)methyl)-3-methyl-2,3,4,9-tetrahydro-1H-pyrido[3,4-b]indol-1-yl)-4-methoxyphenoxy)ethyl)propan-1-amine]",543 µM,75%,56%,–,–,–,–,–
"C[C@@H]1Cc2c([nH]c3ccccc23)[C@@H](c2c(F)ccc(OCCNCCCF)c2F)N1CC(F)(F)F [Example 9, N-(2-(2,4-difluoro-3-((1R,3R)-3-methyl-2-(2,2,2-trifluoroethyl)-2,3,4,9-tetrahydro-1H-pyrido[3,4-b]indol-1-yl)phenoxy)ethyl)-3-fluoropropan-1-amine]",–,101%,97%,1.2 nM,0.088 nM,–,–,–
"C[C@@H]1Cc2c([nH]c3ccccc23)[C@@H](c2cc(OCCNCCCF)ccc2F)N1CC(F)(F)F [Example 10, 3-fluoro-N-(2-(4-fluoro-3-((1R,3R)-3-methyl-2-(2,2,2-trifluoroethyl)-2,3,4,9-tetrahydro-1H-pyrido[3,4-b]indol-1-yl)phenoxy)ethyl)propan-1-amine]",–,101%,94%,–,–,–,–,–
"COc1ccc(OCCNCCCF)c(F)c1[C@@H]1c2[nH]c3ccccc3c2C[C@@H](C)N1CC(F)(F)F [Example 11, 3-fluoro-N-(2-(2-fluoro-4-methoxy-3-((1R,3R)-3-methyl-2-(2,2,2-trifluoroethyl)-2,3,4,9-tetrahydro-1H-pyrido[3,4-b]indol-1-yl)phenoxy)ethyl)propan-1-amine]",–,92%,94%,1.2 nM,0.14 nM,–,–,–
"C[C@@H]1Cc2c([nH]c3ccccc23)[C@@H](c2c(F)ccc(OCCNCCCF)c2F)N1CC(F)(F)CO [Example 14, 3-((1R,3R)-1-(2,6-difluoro-3-(2-((3-fluoropropyl)amino)ethoxy)phenyl)-3-methyl-1,3,4,9-tetrahydro-2H-pyrido[3,4-b]indol-2-yl)-2,2-difluoropropan-1-ol]",–,95%,95%,–,–,–,–,–
"COc1ccc(NCCNCCCF)cc1[C@@H]1c2[nH]c3ccccc3c2C[C@@H](C)N1CC(F)(F)F [Example 40, N1-(3-fluoropropyl)-N2-(4-methoxy-3-((1R,3R)-3-methyl-2-(2,2,2-trifluoroethyl)-2,3,4,9-tetrahydro-1H-pyrido[3,4-b]indol-1-yl)phenyl)ethane-1,2-diamine]",366 µM,70%,–,7.9 nM,0.53 nM,4100 nM,3,0.89 % free
"Cc1c(OCCNCCCF)ccc(F)c1[C@@H]1c2[nH]c3ccccc3c2C[C@@H](C)N1C[C@H](C)C(=O)O [Example 55, (S)-3-((1R,3R)-1-(6-fluoro-3-(2-((3-fluoropropyl)amino)ethoxy)-2-methylphenyl)-3-methyl-1,3,4,9-tetrahydro-2H-pyrido[3,4-b]indol-2-yl)-2-methylpropanoic acid]",–,94%,89%,–,–,–,–,–
"C[C@@H]1Cc2c([nH]c3ccccc23)[C@@H](c2c(F)cnc(OCCNCCCF)c2F)N1CC(F)(F)CO [Example 64, 3-((1R,3R)-1-(3,5-difluoro-2-(2-((3-fluoropropyl)amino)ethoxy)pyridin-4-yl)-3-methyl-1,3,4,9-tetrahydro-2H-pyrido[3,4-b]indol-2-yl)-2,2-difluoropropan-1-ol]",–,98%,96%,0.96 nM,0.071 nM,–,–,–
"C[C@@H]1Cc2c([nH]c3ccccc23)[C@@H](c2c(F)ccc(OCCNCCCF)c2F)N1CC1(F)CC1 [Example 76, N-(2-(2,4-difluoro-3-((1R,3R)-2-((1-fluorocyclopropyl)methyl)-3-methyl-2,3,4,9-tetrahydro-1H-pyrido[3,4-b]indol-1-yl)phenoxy)ethyl)-3-fluoropropan-1-amine]",–,85%,92%,1 nM,0.21 nM,–,–,–
"Cc1c(OCCNCCCF)ccc(F)c1[C@@H]1c2[nH]c3ccc(F)cc3c2C[C@@H](C)N1C[C@@H](C)C(=O)O [Example 121, (R)-3-((1R,3R)-6-fluoro-1-(6-fluoro-3-(2-((3-fluoropropyl)amino)ethoxy)-2-methylphenyl)-3-methyl-1,3,4,9-tetrahydro-2H-pyrido[3,4-b]indol-2-yl)-2-methylpropanoic acid]",–,107%,85%,2.8 nM,0.53 nM,–,–,–
"Cc1c(OCCNCCC(F)F)ccc(F)c1[C@@H]1c2[nH]c3ccccc3c2C[C@@H](C)N1C[C@@H](C)C(=O)O [Example 123, (R)-3-((1R,3R)-1-(3-(2-((3,3-difluoropropyl)amino)ethoxy)-6-fluoro-2-methylphenyl)-3-methyl-1,3,4,9-tetrahydro-2H-pyrido[3,4-b]indol-2-yl)-2-methylpropanoic acid]",–,90%,91%,11 nM,0.96 nM,–,–,–
"Cc1c(OCCNCCC(F)F)ccc(F)c1[C@@H]1c2[nH]c3ccccc3c2C[C@@H](C)N1C[C@H](C)C(=O)O [Example 124, (S)-3-((1R,3R)-1-(3-(2-((3,3-Difluoropropyl)amino)ethoxy)-6-fluoro-2-methylphenyl)-3-methyl-1,3,4,9-tetrahydro-2H-pyrido[3,4-b]indol-2-yl)-2-methylpropanoic acid]",–,82%,93%,3.9 nM,0.68 nM,–,–,–
"Cc1c(OCCNCCCF)ccc(F)c1[C@@H]1c2[nH]c3ccccc3c2C[C@@H](C(F)F)N1C[C@H](C)C(=O)O [Example 137, (S)-3-((1R,3S)-3-(difluoromethyl)-1-(6-fluoro-3-(2-((3-fluoropropyl)amino)ethoxy)-2-methylphenyl)-1,3,4,9-tetrahydro-2H-pyrido[3,4-b]indol-2-yl)-2-methylpropanoic acid]",–,95%,90%,1.7 nM,0.52 nM,–,–,–
"C[C@@H](CN1[C@H](c2c(F)cnc(OCCNCCCF)c2Cl)c2[nH]c3ccccc3c2C[C@H]1C(F)(F)F)C(=O)O [Example 142, (S)-3-((1R,3S)-1-(3-chloro-5-fluoro-2-(2-((3-fluoropropyl)amino)ethoxy)pyridin-4-yl)-3-(trifluoromethyl)-1,3,4,9-tetrahydro-2H-pyrido[3,4-b]indol-2-yl)-2-methylpropanoic acid]",–,80%,85%,1.5 nM,0.95 nM,–,–,–
"Cc1c(OCCN(C)CCCF)ccc(F)c1[C@@H]1c2[nH]c3ccccc3c2C[C@@H](C)N1C[C@H](C)C(=O)O [Example 143, (S)-3-((1R,3R)-1-(6-fluoro-3-(2-((3-fluoropropyl)(methyl)amino)ethoxy)-2-methylphenyl)-3-methyl-1,3,4,9-tetrahydro-2H-pyrido[3,4-b]indol-2-yl)-2-methylpropanoic acid]",–,71%,87%,–,–,–,–,–

# More lines, main results first:
solubility at 24 h [1],SMILES,CAMA1 Western % ER deg vs Fv [2],MCF7 Western % ER deg vs Fv [3],IC50 [4],IC50 [5],IC50 [6],logD [7],Human plasma protein binding (% free) [8]
154 µM,"COc1ccc(OCCNCCCF)cc1[C@@H]1c2[nH]c3ccccc3c2C[C@@H](C)N1CC(F)F [Example 6, N-(2-(3-((1R,3R)-2-(2,2-difluoroethyl)-3-methyl-2,3,4,9-tetrahydro-1H-pyrido[3,4-b]indol-1-yl)-4-methoxyphenoxy)ethyl)-3-fluoropropan-1-amine]",81%,97%,–,–,–,–,–
617 µM,"COc1ccc(OCCNCCCF)cc1[C@@H]1c2[nH]c3ccccc3c2C[C@@H](C)N1CC(F)(F)CO [Example 8, 2,2-Difluoro-3-((1R,3R)-1-(5-(2-((3-fluoropropyl)amino)ethoxy)-2-methoxyphenyl)-3-methyl-1,3,4,9-tetrahydro-2H-pyrido[3,4-b]indol-2-yl)propan-1-ol]",93%,98%,–,–,–,–,–
74 µM,"C[C@@H]1Cc2c([nH]c3ccccc23)[C@@H](c2cccc(OCCNCCCF)c2)N1CC(F)(F)F [Example 16, 3-fluoro-N-(2-(3-((1R,3R)-3-methyl-2-(2,2,2-trifluoroethyl)-2,3,4,9-tetrahydro-1H-pyrido[3,4-b]indol-1-yl)phenoxy)ethyl)propan-1-amine]",83%,89%,–,–,–,–,–
11 µM,"Cc1c(OCCNCCCF)cccc1[C@@H]1c2[nH]c3ccccc3c2C[C@@H](C)N1CC(F)(F)F [Example 20, 3-fluoro-N-(2-(2-methyl-3-((1R,3R)-3-methyl-2-(2,2,2-trifluoroethyl)-2,3,4,9-tetrahydro-1H-pyrido[3,4-b]indol-1-yl)phenoxy)ethyl)propan-1-amine]",91%,–,–,–,–,–,–
> 1000 µM,"C[C@@H]1Cc2c([nH]c3ccccc23)[C@@H](c2c(F)ccc(OCCNCCCF)c2F)N1C[C@H](C)C(=O)O [Example 58, (S)-3-((1R,3R)-1-(2,6-difluoro-3-(2-((3-fluoropropyl)amino)ethoxy)phenyl)-3-methyl-1,3,4,9-tetrahydro-2H-pyrido[3,4-b]indol-2-yl)-2-methylpropanoic acid]",83%,76%,–,–,–,–,–
